Data from patent US11813239B2, “Compositions and methods for improving cardiac structure and/or function” (Wisconsin Alumni Research Foundation, priority 2020, dated 2023).
“Also recorded” adds a separate entry of the source.

How the values were obtained:
[1] = tested on: adult mouse heart following myocardial infarction; test: Echocardiography after adult myocardial infarction, malonate from within an hour post-MI for two weeks; type: in vivo; conditions: for % EF (Ejection Fraction) / % FS (Fractional Shortening) / LV Mass (Left Ventricular Mass, Anatomical Weight) / LV Vol; d (Left Ventricular Volume; diastole) / LV Vol; s (Left Ventricular Volume; systole) / LVAWD (Left Ventricle Anterior Wall Thickness Diastole) / LVAWS (Left Ventricle Anterior Wall Thickness Systole) / LVIDD (Left Ventricle Internal Diameter Diastole) / LVIDS (Left Ventricle Internal Diameter Systole) / LVPWD (Left Ventricle Posterior Wall Thickness Diastole) / LVPWS (Left Ventricle Posterior Wall Thickness Systole): adult mice, mean ± SE
[2] = tested on: adult mouse heart following myocardial infarction; test: Trichrome staining after adult MI, malonate treatment starting 1-week post-MI; conditions: malonate for 4 weeks starting 1-week post-MI, 6 weeks post-MI
Excerpt: Adult male mice (8-week-old) were subjected to MI by ligation of the proximal aspect of the LAD coronary artery. In brief, mice were anaesthetized using 3% isoflurane, then mice were intubated with PE50 tubing and placed on a mouse ventilator at 120-130 breaths per minute with a stroke volume of 150 microliters and maintained on 2% isoflurane. A left lateral incision through the fourth intercostal space was made to expose the heart. After visualizing the left coronary artery, 7-0 suture was placed through the myocardium in the anterolateral wall and secured as previously describer^17,18. Coronary artery entrapment was confirmed by observing blanching of the distal circulation (ventricular apex). ECG was used to confirm MI by noting ST segment changes. The lungs were over inflated, and the ribs and muscle layers were closed by absorbable sutures. The skin is closed by additional suturing using 6-0 nylon. The mouse was recovered from the anesthesia and extubated.
Saline was used as a vehicle control for all experiments. […]
Hearts were harvested and fixed in 4% paraformaldehyde (PFA) in PBS solution overnight at 4° C., processed for paraffin embedding, and sectioned in intervals. […] Scar size measurements were quantified from at least 3 sections of the heart from ligature to apex. ImageJ was used to quantify the fibrotic scar, and the average scar area for each heart was plotted. […]

[3] = tested on: postnatal (P7) mouse heart following myocardial infarction; test: Echocardiography after myocardial infarction in P7 juvenile mice
Description: Neonatal mice at postnatal day 1 (P1) or day 7 (P7) were used for myocardial infarction (MI) surgery. Neonatal mice were subjected to MI surgeries as previously described. Briefly, neonates were anesthetized by hypothermia on ice. Lateral thoracotomy at the fourth intercostal space was performed by blunt dissection of the intercostal muscles after skin incision. A C-1 tapered needle attached to a 6-0 prolene suture (Ethicon Inc., Bridgewater, N.J.) was passed through the mid-ventricle below the left anterior descending coronary artery (LAD) and tied off to induce MI. The prolene suture was used to suture the ribs together and seal the chest wall incisions, and the skin was closed using adhesive glue (3M). The mice then were warmed on a heating pad until recovery. Sham-operated mice underwent the same procedure including hypothermic anesthesia, but not LAD ligation.
Neonatal mice were weighed and injected daily with either saline, 100 mg/kg dimethyl succinate (Sigma), 100 mg/kg dimethyl malonate (Sigma), or 100 μg/kg Atpenin A5 (Enzo Life Sciences). Dimethyl succinate and dimethyl malonate were dissolved in saline. Stock solution of Atpenin A5 at 0.1 mg/ml was initially prepared by dissolving in DMSO (Sigma) and then further diluted with saline before injection. Saline was used as a vehicle control for all experiments.
Transthoracic echocardiography was performed by using a Visual Sonics 770 ultrasonograph with a 25-MHz transducer (Visual Sonics, Toronto) as described previously^19. Mice were lightly anesthetized with 1% isoflurane and maintained on a heated platform. Two-dimensionally guided M-mode images from a parasternal long axis (PLAX) of the left ventricle (LV) were acquired at the tip of the papillary muscles. Wall thickness and chamber diameters were measured in both diastole and systole. Fractional shortening was calculated as (LVDd−LVDs)/LVDd×100, where LVDd is LV diameter in diastole and LVDs is LV diameter in systole. Ejection fraction was calculated as [(7.0/(2.4+LVDd)(LVDd)^3−(7.0/(2.4+LVDs)(LVDs)^3/(7.0/(2.4+LVDd)(LVDd)^3×100 and LV mass was calculated by using the formula [1.05×((Posterior Walldiastole+Anterior Walldiastole+LVDd)^3−(LVDd)^3)]. All parameters were measured over at least three consecutive cycles.
We injected dimethyl malonate (100 mg/kg, daily) in neonatal mice directly after birth for 2 weeks with an MI performed once the mice reached P7. We then analyzed the hearts following injury to determine whether malonate results in prolongation of the neonatal regenerative window (FIG. 10A).

[4] = Baseline before surgery and dosing (same values as saline Table 4A)
[5] = MI, 14 DPMI, dimethyl malonate 100 mg/kg intraperitoneally daily for 2 weeks post-MI
[6] = MI, 28 DPMI, dimethyl malonate 100 mg/kg intraperitoneally daily for 2 weeks post-MI
[7] = sham (SH), 14 DPMI, dimethyl malonate 100 mg/kg intraperitoneally daily for 2 weeks
[8] = sham (SH), 28 DPMI, dimethyl malonate 100 mg/kg intraperitoneally daily for 2 weeks
[9] = MI at P7 (n = 6), dimethyl malonate 100 mg/kg daily for 2 weeks from birth, echo 21 days post-MI (P7D21), mean ± SE
[10] = sham at P7 (SH, n = 6), dimethyl malonate 100 mg/kg daily for 2 weeks from birth, echo at day 21 (P7D21), mean ± SE

SMILES: COC(=O)CC(=O)OC [Malonate, dimethyl malonate]
- cardiac function by echocardiography (EF and FS) ([1]; adult MI, dimethyl malonate 100 mg/kg daily for 2 weeks, 28 days post-MI, vs saline): complete restoration of cardiac function; also recorded: significant improvement of cardiac function
- cardiac function by echocardiography ([1]; adult MI, dimethyl malonate 100 mg/kg daily, 14 days post-MI, vs controls, difference was not significant): trending improvement in cardiac function
- % EF (Ejection Fraction) [1, 4]: 57.761 ± 0.698%
- % FS (Fractional Shortening) [1, 4]: 29.844 ± 0.434%
- LV Mass (Left Ventricular Mass, Anatomical Weight) [1, 4]: 78.043 ± 3.706 mg
- LV Vol; d (Left Ventricular Volume; diastole) [1, 4]: 59.761 ± 3.319 µL
- LV Vol; s (Left Ventricular Volume; systole) [1, 4]: 25.363 ± 1.705 µL
- LVAWD (Left Ventricle Anterior Wall Thickness Diastole) [1, 4]: 0.641 ± 0.006 mm
- LVAWS (Left Ventricle Anterior Wall Thickness Systole) [1, 4]: 0.767 ± 0.005 mm
- LVIDD (Left Ventricle Internal Diameter Diastole) [1, 4]: 3.731 ± 0.086 mm
- LVIDS (Left Ventricle Internal Diameter Systole) [1, 4]: 2.619 ± 0.072 mm
- LVPWD (Left Ventricle Posterior Wall Thickness Diastole) [1, 4]: 0.639 ± 0.006 mm
- LVPWS (Left Ventricle Posterior Wall Thickness Systole) [1, 4]: 0.769 ± 0.005 mm
- % EF (Ejection Fraction) [1, 5]: 44.421 ± 5.272%
- % FS (Fractional Shortening) [1, 5]: 22.034 ± 2.951%
- LV Mass (Left Ventricular Mass, Anatomical Weight) [1, 5]: 80.024 ± 8.731 mg
- LV Vol; d (Left Ventricular Volume; diastole) [1, 5]: 74.738 ± 12.392 µL
- LV Vol; s (Left Ventricular Volume; systole) [1, 5]: 44.249 ± 11.125 µL
- LVAWD (Left Ventricle Anterior Wall Thickness Diastole) [1, 5]: 0.583 ± 0.015 mm
- LVAWS (Left Ventricle Anterior Wall Thickness Systole) [1, 5]: 0.723 ± 0.020 mm
- LVIDD (Left Ventricle Internal Diameter Diastole) [1, 5]: 4.047 ± 0.283 mm
- LVIDS (Left Ventricle Internal Diameter Systole) [1, 5]: 3.188 ± 0.334 mm
- LVPWD (Left Ventricle Posterior Wall Thickness Diastole) [1, 5]: 0.578 ± 0.014 mm
- LVPWS (Left Ventricle Posterior Wall Thickness Systole) [1, 5]: 0.753 ± 0.016 mm
- % EF (Ejection Fraction) [1, 6]: 48.940 ± 5.707%
- % FS (Fractional Shortening) [1, 6]: 24.858 ± 3.214%
- LV Mass (Left Ventricular Mass, Anatomical Weight) [1, 6]: 83.201 ± 16.390 mg
- LV Vol; d (Left Ventricular Volume; diastole) [1, 6]: 84.656 ± 22.884 µL
- LV Vol; s (Left Ventricular Volume; systole) [1, 6]: 47.375 ± 16.164 µL
- LVAWD (Left Ventricle Anterior Wall Thickness Diastole) [1, 6]: 0.528 ± 0.033 mm
- LVAWS (Left Ventricle Anterior Wall Thickness Systole) [1, 6]: 0.693 ± 0.042 mm
- LVIDD (Left Ventricle Internal Diameter Diastole) [1, 6]: 4.183 ± 0.448 mm
- LVIDS (Left Ventricle Internal Diameter Systole) [1, 6]: 3.193 ± 0.451 mm
- LVPWD (Left Ventricle Posterior Wall Thickness Diastole) [1, 6]: 0.600 ± 0.020 mm
- LVPWS (Left Ventricle Posterior Wall Thickness Systole) [1, 6]: 0.755 ± 0.017 mm
- % EF (Ejection Fraction) [1, 7]: 52.458 ± 2.795%
- % FS (Fractional Shortening) [1, 7]: 26.613 ± 1.724%
- LV Mass (Left Ventricular Mass, Anatomical Weight) [1, 7]: 78.241 ± 13.192 mg
- LV Vol; d (Left Ventricular Volume; diastole) [1, 7]: 71.304 ± 10.106 µL
- LV Vol; s (Left Ventricular Volume; systole) [1, 7]: 33.993 ± 5.072 µL
- LVAWD (Left Ventricle Anterior Wall Thickness Diastole) [1, 7]: 0.575 ± 0.045 mm
- LVAWS (Left Ventricle Anterior Wall Thickness Systole) [1, 7]: 0.723 ± 0.047 mm
- LVIDD (Left Ventricle Internal Diameter Diastole) [1, 7]: 4.005 ± 0.234 mm
- LVIDS (Left Ventricle Internal Diameter Systole) [1, 7]: 2.940 ± 0.188 mm
- LVPWD (Left Ventricle Posterior Wall Thickness Diastole) [1, 7]: 0.575 ± 0.035 mm
- LVPWS (Left Ventricle Posterior Wall Thickness Systole) [1, 7]: 0.733 ± 0.046 mm
- % EF (Ejection Fraction) [1, 8]: 48.208 ± 3.686%
- % FS (Fractional Shortening) [1, 8]: 24.032 ± 2.173%
- LV Mass (Left Ventricular Mass, Anatomical Weight) [1, 8]: 82.315 ± 5.106 mg
- LV Vol; d (Left Ventricular Volume; diastole) [1, 8]: 68.006 ± 5.647 µL
- LV Vol; s (Left Ventricular Volume; systole) [1, 8]: 35.538 ± 4.993 µL
- LVAWD (Left Ventricle Anterior Wall Thickness Diastole) [1, 8]: 0.623 ± 0.014 mm
- LVAWS (Left Ventricle Anterior Wall Thickness Systole) [1, 8]: 0.755 ± 0.010 mm
- LVIDD (Left Ventricle Internal Diameter Diastole) [1, 8]: 3.940 ± 0.137 mm
- LVIDS (Left Ventricle Internal Diameter Systole) [1, 8]: 2.998 ± 0.170 mm
- LVPWD (Left Ventricle Posterior Wall Thickness Diastole) [1, 8]: 0.618 ± 0.013 mm
- LVPWS (Left Ventricle Posterior Wall Thickness Systole) [1, 8]: 0.753 ± 0.013 mm
- scar size (fibrosis quantification) [2]: significant reduction in scar size
- % EF (Ejection Fraction) [3, 9]: 69.751 ± 5.496%
- % FS (Fractional Shortening) [3, 9]: 38.443 ± 4.043%
- LV Mass (Left Ventricular Mass, Anatomical Weight) [3, 9]: 48.029 ± 9.293 mg
- LV Vol; d (Left Ventricular Volume; diastole) [3, 9]: 24.289 ± 5.739 µL
- LV Vol; s (Left Ventricular Volume; systole) [3, 9]: 8.741 ± 3.350 µL
- LVAWD (Left Ventricle Anterior Wall Thickness Diastole) [3, 9]: 0.702 ± 0.029 mm
- LVAWS (Left Ventricle Anterior Wall Thickness Systole) [3, 9]: 0.814 ± 0.023 mm
- LVIDD (Left Ventricle Internal Diameter Diastole) [3, 9]: 2.490 ± 0.269 mm
- LVIDS (Left Ventricle Internal Diameter Systole) [3, 9]: 1.578 ± 0.259 mm
- LVPWD (Left Ventricle Posterior Wall Thickness Diastole) [3, 9]: 0.684 ± 0.037 mm
- LVPWS (Left Ventricle Posterior Wall Thickness Systole) [3, 9]: 0.823 ± 0.022 mm
- cardiac function by echocardiography (EF, FS, LVIDD, LVIDS) ([3]; MI at P7, dimethyl malonate 100 mg/kg daily for 2 weeks from birth, 21 days post-MI): restored to normal levels
- % EF (Ejection Fraction) [3, 10]: 67.727 ± 3.762%
- % FS (Fractional Shortening) [3, 10]: 37.135 ± 2.848%
- LV Mass (Left Ventricular Mass, Anatomical Weight) [3, 10]: 62.439 ± 4.833 mg
- LV Vol; d (Left Ventricular Volume; diastole) [3, 10]: 43.309 ± 5.883 µL
- LV Vol; s (Left Ventricular Volume; systole) [3, 10]: 14.962 ± 3.612 µL
- LVAWD (Left Ventricle Anterior Wall Thickness Diastole) [3, 10]: 0.650 ± 0.025 mm
